From PubChem BioAssay (NCI)
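Exposure lasted 48 hours, with cells grown in 96-well plates and compounds tested at five concentrations. GI50 = concentration required for 50% inhibition of growth. TGI denotes the concentration required for complete inhibition of growth.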

Assays:
Test in all cases: NCI anticancer screen, dose series, 48 h
M14 melanoma = test system: M14 melanoma
OVCAR-3 ovarian = test system: OVCAR-3 ovarian
PC-3 prostate = test system: PC-3 prostate
RXF 393 renal = test system: RXF 393 renal
SNB-75 CNS = test system: SNB-75 CNS
MDA-MB-231 breast = test system: MDA-MB-231 breast
SN12C renal = test system: SN12C renal
BT-549 breast = test system: BT-549 breast
786-0 renal = test system: 786-0 renal
HCT-116 colon = test system: HCT-116 colon
CAKI-1 renal = test system: CAKI-1 renal
SK-MEL-5 melanoma = test system: SK-MEL-5 melanoma
OVCAR-8 ovarian = test system: OVCAR-8 ovarian
HS 578T breast = test system: HS 578T breast
RPMI-8226 leukemia = test system: RPMI-8226 leukemia
UACC-62 melanoma = test system: UACC-62 melanoma
K-562 leukemia = test system: K-562 leukemia
OVCAR-4 ovarian = test system: OVCAR-4 ovarian
HCC-2998 colon = test system: HCC-2998 colon
T-47D breast = test system: T-47D breast
NCI-H23 lung = test system: NCI-H23 lung
COLO 205 colon = test system: COLO 205 colon
NCI-H460 lung = test system: NCI-H460 lung
U251 CNS = test system: U251 CNS
NCI/ADR-RES ovarian = test system: NCI/ADR-RES ovarian
MDA-MB-435 = test system: MDA-MB-435
LOX IMVI melanoma = test system: LOX IMVI melanoma
SF-539 CNS = test system: SF-539 CNS
UACC-257 melanoma = test system: UACC-257 melanoma
HOP-62 NSCLC = test system: HOP-62 NSCLC
A549 NSCLC = test system: A549 NSCLC
NCI-H226 lung = test system: NCI-H226 lung
EKVX NSCLC = test system: EKVX NSCLC
SW-620 colon = test system: SW-620 colon
HCT-15 colon = test system: HCT-15 colon
DU-145 prostate = test system: DU-145 prostate
MCF7 breast = test system: MCF7 breast
ACHN renal = test system: ACHN renal
KM12 colon = test system: KM12 colon
MOLT-4 leukemia = test system: MOLT-4 leukemia
TK-10 renal = test system: TK-10 renal
UO-31 renal = test system: UO-31 renal
OVCAR-5 ovarian = test system: OVCAR-5 ovarian
SK-OV-3 ovarian = test system: SK-OV-3 ovarian
IGROV1 ovarian = test system: IGROV1 ovarian
HOP-92 NSCLC = test system: HOP-92 NSCLC
HT29 colon = test system: HT29 colon
NCI-H522 lung = test system: NCI-H522 lung
SK-MEL-2 melanoma = test system: SK-MEL-2 melanoma
CCRF-CEM leukemia = test system: CCRF-CEM leukemia
SK-MEL-28 melanoma = test system: SK-MEL-28 melanoma
SF-268 CNS = test system: SF-268 CNS
SNB-19 CNS = test system: SNB-19 CNS
SF-295 CNS = test system: SF-295 CNS

Compound `O=C(Cc1csc2nc(-c3ccc(Br)cc3)cn12)N/N=C/c1cc(Br)ccc1O` has a GI50 (M14 melanoma) of 14.3 µM, a TGI (M14 melanoma) of 30.4 µM and a GI50 (OVCAR-3 ovarian) of 45.3 µM. For the same compound, the TGI (OVCAR-3 ovarian) was greater than 100 µM, the GI50 (PC-3 prostate) was 9.46 µM and the TGI (PC-3 prostate) was greater than 100 µM. For the same compound, the GI50 (RXF 393 renal) was 63.9 µM, the TGI (RXF 393 renal) was greater than 100 µM and the GI50 (SNB-75 CNS) was greater than 100 µM. The TGI (SNB-75 CNS) was greater than 100 µM, the GI50 (MDA-MB-231 breast) was 11.8 µM and the TGI (MDA-MB-231 breast) was 66.8 µM. The GI50 (SN12C renal) was 16.6 µM, the TGI (SN12C renal) was 79.6 µM and the GI50 (BT-549 breast) was 27.7 µM. The TGI (BT-549 breast) was greater than 100 µM, the GI50 (786-0 renal) was 15 µM and the TGI (786-0 renal) was greater than 100 µM. It also gave a GI50 (HCT-116 colon) of 4.31 µM, a TGI (HCT-116 colon) of 48.2 µM and a GI50 (CAKI-1 renal) of 4.53 µM. The TGI (CAKI-1 renal) was 34.9 µM, the GI50 (SK-MEL-5 melanoma) was 11.4 µM and the TGI (SK-MEL-5 melanoma) was 45.4 µM. It also gave a GI50 (OVCAR-8 ovarian) of 7.06 µM, a TGI (OVCAR-8 ovarian) greater than 100 µM and a GI50 (HS 578T breast) of 53.3 µM. The TGI (HS 578T breast) was greater than 100 µM, the GI50 (RPMI-8226 leukemia) was 5.04 µM and the TGI (RPMI-8226 leukemia) was greater than 100 µM. For the same compound, the GI50 (UACC-62 melanoma) was 10.4 µM, the TGI (UACC-62 melanoma) was 28.6 µM and the GI50 (K-562 leukemia) was 3.02 µM. It also gave a TGI (K-562 leukemia) of 13.9 µM, a GI50 (OVCAR-4 ovarian) of 50.2 µM and a TGI (OVCAR-4 ovarian) greater than 100 µM. The GI50 (HCC-2998 colon) was 5.5 µM, the TGI (HCC-2998 colon) was 19.7 µM and the GI50 (T-47D breast) was 35.3 µM. The TGI (T-47D breast) was greater than 100 µM, the GI50 (NCI-H23 lung) was 4.32 µM and the TGI (NCI-H23 lung) was 26.2 µM. The GI50 (COLO 205 colon) was 23.9 µM, the TGI (COLO 205 colon) was greater than 100 µM and the GI50 (NCI-H460 lung) was greater than 100 µM. For the same compound, the TGI (NCI-H460 lung) was greater than 100 µM, the GI50 (U251 CNS) was 11.3 µM and the TGI (U251 CNS) was greater than 100 µM. For the same compound, the GI50 (NCI/ADR-RES ovarian) was 2.23 µM, the TGI (NCI/ADR-RES ovarian) was 6.75 µM and the GI50 (MDA-MB-435) was 18 µM. It also gave a TGI (MDA-MB-435) greater than 100 µM, a GI50 (LOX IMVI melanoma) of 6.79 µM and a TGI (LOX IMVI melanoma) of 28 µM. For the same compound, the GI50 (SF-539 CNS) was 14.9 µM, the TGI (SF-539 CNS) was 53.8 µM and the GI50 (UACC-257 melanoma) was 20.1 µM. It also gave a TGI (UACC-257 melanoma) of 63.2 µM, a GI50 (HOP-62 NSCLC) of 9.77 µM and a TGI (HOP-62 NSCLC) of 41.3 µM. The GI50 (A549 NSCLC) was 18.8 µM, the TGI (A549 NSCLC) was greater than 100 µM and the GI50 (NCI-H226 lung) was 23.3 µM. For the same compound, the TGI (NCI-H226 lung) was 65.1 µM, the GI50 (EKVX NSCLC) was 24.2 µM and the TGI (EKVX NSCLC) was greater than 100 µM. For the same compound, the GI50 (SW-620 colon) was 5.51 µM, the TGI (SW-620 colon) was greater than 100 µM and the GI50 (HCT-15 colon) was 5.6 µM. It also gave a TGI (HCT-15 colon) greater than 100 µM, a GI50 (DU-145 prostate) of 19.5 µM and a TGI (DU-145 prostate) greater than 100 µM. The GI50 (MCF7 breast) was greater than 100 µM, the TGI (MCF7 breast) was greater than 100 µM and the GI50 (ACHN renal) was 6.13 µM. The TGI (ACHN renal) was 42.9 µM, the GI50 (KM12 colon) was 29.6 µM and the TGI (KM12 colon) was greater than 100 µM. For the same compound, the GI50 (MOLT-4 leukemia) was 0.674 µM, the TGI (MOLT-4 leukemia) was 8.41 µM and the GI50 (TK-10 renal) was 4.33 µM. For the same compound, the TGI (TK-10 renal) was 17 µM, the GI50 (UO-31 renal) was 24 µM and the TGI (UO-31 renal) was greater than 100 µM. It also gave a GI50 (OVCAR-5 ovarian) of 14 µM, a TGI (OVCAR-5 ovarian) of 73.5 µM and a GI50 (SK-OV-3 ovarian) greater than 100 µM. For the same compound, the TGI (SK-OV-3 ovarian) was greater than 100 µM, the GI50 (IGROV1 ovarian) was 1.77 µM and the TGI (IGROV1 ovarian) was greater than 100 µM. For the same compound, the GI50 (HOP-92 NSCLC) was 22.2 µM, the TGI (HOP-92 NSCLC) was greater than 100 µM and the GI50 (HT29 colon) was 34.7 µM. The TGI (HT29 colon) was greater than 100 µM, the GI50 (NCI-H522 lung) was 11.3 µM and the TGI (NCI-H522 lung) was greater than 100 µM. It also gave a GI50 (SK-MEL-2 melanoma) of 89 µM, a TGI (SK-MEL-2 melanoma) greater than 100 µM and a GI50 (CCRF-CEM leukemia) of 3.89 µM. It also gave a TGI (CCRF-CEM leukemia) of 38.6 µM, a GI50 (SK-MEL-28 melanoma) of 48.8 µM and a TGI (SK-MEL-28 melanoma) greater than 100 µM. For the same compound, the GI50 (SF-268 CNS) was greater than 100 µM, the TGI (SF-268 CNS) was greater than 100 µM and the GI50 (SNB-19 CNS) was 26.1 µM. The TGI (SNB-19 CNS) was greater than 100 µM, the GI50 (SF-295 CNS) was 14 µM and the TGI (SF-295 CNS) was 88.3 µM.
